Data as given in US20250034135A1, “ANTI-APOPTOTIC PROTEIN BCL-2 INHIBITOR, PHARMACEUTICAL COMPOSITION AND USES THEREOF” (HANGZHOU HEALZEN THERAPEUTICS CO., LTD., priority 2021, published 2025).
Like-named read-outs stand apart in the source and are kept apart here.

How the values were obtained:
[1] = target: BCL2 (Homo sapiens (Human), UniProt P10415); experiment: Molecular level activity test of anti-apoptotic protein BCL2 (HTRF, binding to Bim peptide); settings: HTRF, binding of BCL2 to Bim peptide; read-out: BCL2 nM (inhibitory activity, IC50)
Method in brief: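 Compound (2% DMSO) was mixed with His-tagged recombinant BCL2 and biotinylated Bim peptide for 1 h. Detection used anti-His antibody plus streptavidin-XL665 for 4 h at room temperature, read by time-resolved fluorescence.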

[2] = target: BCL2 (G101V) (Homo sapiens (Human), UniProt P10415, G101V); experiment: Molecular level activity test of anti-apoptotic protein BCL2 (G101V) (HTRF, binding to Bim peptide); settings: inhibition of BCL2 (G101V) binding to Bim peptide, read-out: BCL-2 (G101V)
Procedure: (§1) The detection of the binding ability between anti-apoptotic protein BCL2 (G101V) and pro-apoptotic protein Bim was performed using Homogeneous Time-Resolved Fluorescence technology. The reaction of this method occurred in a white shallow 384-well plate, with a total reaction volume of 10 μL. Specifically, it included 2 μL of the compound to be tested (2% DMSO), 4 μL His-tagged recombinant protein, and 4 μL Biotin-tagged BIM protein peptide. After 1 hour of reaction, 5 L of each Anti-His and streptavidin-tagged XL665 antibody diluents diluted with a detection buffer were added. After incubating at room temperature for 4 hours, the values were read using the Envision multifunctional microplate reader to detect the effect of the compound to be tested on the binding ability of BCL2 (G101V) to BIM protein peptides.

[3] = target: BCL2 (D103Y) (Homo sapiens (Human), UniProt P10415, D103Y); experiment: Molecular level activity test of BCL2 (D103Y) (HTRF, binding to Bim peptide); settings: read-out: BCL-2 (D103Y) (nM) (inhibitory activity, IC50)
Procedure: as §1, with “BCL2 (D103Y)” for “BCL2 (G101V)”, “5 μL” for “5 L”

[4] = system: RS4; 11 cells; experiment: Tumor proliferation inhibitory activity test (MTS) on RS4; 11; type: cell-based; settings: Homo sapiens, RS4-11, 72 h, 3 days incubation
Procedure: The cell proliferation inhibitory ability of the compounds on RS4; 11 was tested using the MTS method. MTS is a tetrazolium blue salt compound that can be reduced by various dehydrogenases in live cell mitochondria to their respective colored methylzan products. Its color depth is highly correlated with the number of live cells in certain sensitive cell lines within a certain range. RS4; 11, RS4; 11 (BCL-2-G101V) and MOLT-4 tumor cells were cultivated separately and collected, 180 μL of cell suspension was added to each well in a 96-well cell plate, 20 μL of DMSO with a final concentration of 0.2% was added to the control cell wells, 20 μL of gradient diluted compounds were added to cell wells, and the treated cells were incubated in a 5% CO2 incubator at 37° C. for 3 days. After the incubation was completed, the reaction solution was prepared according to the MTS reagent kit, 20 μL was added per well and incubated in a 5% CO2 incubator at 37° C. for 3-4 hours. The absorbance value at 490 nm was read using an enzyme-linked immunosorbent assay (ELISA) plate, and the absorbance value at 690 nm was used as the background value, with OD490 nm-OD690 nm as the final raw data. The formula for calculating the inhibition ratio of compounds was as follows: inhibition ratio=(ODDMSO−ODCompound)/(ODDMSO−ODblank)×100%.

[5] = target: BCL-XL (Homo sapiens (Human), UniProt Q07817); experiment: BCL-XL enzyme molecular level activity test (HTRF, binding to BIM peptide); settings: binding of BCL-XL to BIM peptide, read-out: BCL-XL inhibitory activity (IC50)
Procedure: In a white shallow 384-well plate, a total reaction volume was 10 μL. Specifically, it included 2 μL of the compound to be tested (2% DMSO), […] His-tagged recombinant protein, and 4 μL Biotin-tagged BIM protein peptide. After 1 hour of reaction, 5 μL of each Anti-His and streptavidin-tagged XL665 antibody diluents diluted with a detection buffer were added. After incubating at room temperature for 4 hours, the values were read using the Envision multifunctional microplate reader to detect the effect of the compound to be tested on the binding ability of BCL-XL to BIM protein peptides. The Envision parameter settings were exciting light at 320 nm, and emitting light at 615 nm and 665 nm. The binding ability of anti-apoptotic proteins to Bim protein peptides was indirectly reflected by the signal ratio of 665 nm and 615 nm. In the reaction, background wells without BCL2 and active wells for full binding of recombinant proteins without compounds and Bim protein peptides were set up.

Chain of BCL-XL (Q07817 whole entry): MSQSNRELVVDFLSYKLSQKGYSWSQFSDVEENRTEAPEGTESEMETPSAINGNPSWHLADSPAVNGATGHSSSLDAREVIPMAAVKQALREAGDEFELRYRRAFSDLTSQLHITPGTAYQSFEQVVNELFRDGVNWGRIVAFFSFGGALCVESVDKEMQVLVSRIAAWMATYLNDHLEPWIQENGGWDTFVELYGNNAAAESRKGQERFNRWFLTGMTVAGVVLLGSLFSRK

Compound	IC50 [1]	IC50 [2]	IC50 [3]	IC50 [4]	IC50 ([5]; values given in μM)	IC50 ([5]; values in nM)
COc1ccc(CN2CCN(C3CC4(CCN(c5ccc(C(=O)NS(=O)(=O)c6cc([N+](=O)[O-])c(NCC7CCOCC7)c7c6OCCO7)c(Oc6cnc7[nH]ccc7c6)c5)CC4)C3)[C@H](c3ccccc3C(C)C)C2)cc1 [compound 146, (R)-2-((1H-pyrrolo[2,3-b]pyrid-5-yl)oxy)-4-(2-(2-(2-isopropylphenyl)-4-(4-methoxybenzyl)piperazin-1-yl)-7-azaspiro[3.5]non-7-yl)-N-((7-nitro-8-(((tetrahydro-2H-pyran-4-yl)methyl)amino)-2,3-dihydrobenzo[b][1,4]dioxan-5-yl)sulfonyl)benzamide]	< 10 nM	< 10 nM	< 10 nM	0.5 to 1 nM	2.7 µM	
COc1ccc(CN2CCN(C3CC4(CCN(c5cc(Oc6cnc7[nH]cc(F)c7c6)c(C(=O)NS(=O)(=O)c6ccc(NCC7(F)CCN(C(C)C)CC7)c([N+](=O)[O-])c6)cc5F)CC4)C3)C(c3ccccc3C(C)C)C2)cc1 (centres unmarked) [compound 062]	< 10 nM	< 10 nM			> 1 µM	
CC(C)c1ccccc1[C@@H]1CN(Cc2cnn(C)c2)CCN1C1CC2(CCN(c3cc(Oc4cnc5[nH]ccc5c4)c(C(=O)NS(=O)(=O)c4ccc(NC[C@H]5CC[C@](C)(O)CC5)c([N+](=O)[O-])c4)cc3F)CC2)C1 [compound 238, 2-((1H-pyrrolo[2,3-b]pyrid-5-yl)oxy)-5-fluoro-N-((4-((((1r, 4r)-4-hydroxy-4-methylcyclohexyl)methyl)amino)-3-nitrophenyl)sulfonyl)-4-(2-((R)-2-(2-isopropylphenyl)-4-((1-methyl-1H-pyrazole-4-yl)methyl)piperazin-1-yl)-7-azaspiro[3.5]non-7-yl)benzamide]				0.5 to 1 nM		
CC(C)c1ccccc1[C@@H]1CN(Cc2ccc(C(F)(F)F)cc2)CCN1C1CC2(CCN(c3cc(Oc4cnc5[nH]ccc5c4)c(C(=O)NS(=O)(=O)c4ccc(NCC5(F)CCOCC5)c([N+](=O)[O-])c4)cc3F)CC2)C1 [compound 188, (R)-2-((1H-pyrrolo[2,3-b]pyrid-5-yl)oxy)-5-fluoro-N-((4-(((4-fluorotetrahydro-2H-pyran-4-yl)methyl)amino)-3-nitrophenyl)sulfonyl)-4-(2-(2-(2-isopropylphenyl)-4-(4-(trifluoromethyl)benzyl)piperazin-1-yl)-7-azaspiro[3.5]non-7-yl)benzamide]	< 10 nM					> 0.5 µM
COc1ccc(CN2CCN(C3CC4(CCN(c5cc(Oc6cnc7[nH]cc(F)c7c6)c(C(=O)NS(=O)(=O)c6ccc(NC[C@H]7CC[C@](C)(O)CC7)c([N+](=O)[O-])c6)cc5F)CC4)C3)[C@H](c3ccccc3C(C)C)C2)cc1 [compound 235, 5-fluoro-2-((3-fluoro-1H-pyrrolo[2,3-b]pyrid-5-yl)oxy)-N-((4-((((1r, 4r)-4-hydroxy-4-methylcyclohexyl)methyl)amino)-3-nitrophenyl)sulfonyl)-4-(2-((R)-2-(2-isopropylphenyl)-4-(4-methoxybenzyl)piperazin-1-yl)-7-azaspiro[3.5]non-7-yl)benzamide]	< 10 nM	< 10 nM	< 10 nM	0.5 to 1 nM		
CC(C)c1ccccc1[C@@H]1CN(Cc2ccc(F)cc2)CCN1C1CC2(CCN(c3cc(Oc4cnc5[nH]ccc5c4)c(C(=O)NS(=O)(=O)c4ccc(NCC5(F)CCOCC5)c([N+](=O)[O-])c4)cc3F)CC2)C1 [compound 186, (R)-2-((1H-pyrrolo[2,3-b]pyrid-5-yl)oxy)-5-fluoro-4-(2-(4-(4-fluorobenzyl)-2-(2-isopropylphenyl)piperazin-1-yl)-7-azaspiro[3.5]non-7-yl)-N-((4-(((4-fluorotetrahydro-2H-pyran-4-yl)methyl)amino)-3-nitrophenyl)sulfonyl)benzamide]	< 10 nM	< 10 nM				> 0.5 µM
CC(C)c1ccccc1[C@@H]1CN(Cc2ccc3c(c2)OCCO3)CCN1C1CC2(CCN(c3cc(Oc4cnc5[nH]ccc5c4)c(C(=O)NS(=O)(=O)c4ccc(NC[C@H]5CC[C@](C)(O)CC5)c([N+](=O)[O-])c4)cc3F)CC2)C1 [compound 226, 2-((1H-pyrrolo[2,3-b]pyrid-5-yl)oxy)-4-(2-((R)-4-((2,3-dihydrobenzo[b][1,4]dioxane-6-yl)methyl)-2-(2-isopropylphenyl)piperazin-1-yl)-7-azaspiro[3.5]non-7-yl)-5-fluoro-N-((4-((((1r, 4r)-4-hydroxy-4-methylcyclohexyl)methyl)amino)-3-nitrophenyl)sulfonyl)benzamide]	< 10 nM					> 0.5 µM
CC(C)c1ccccc1[C@@H]1CN(Cc2ccc3c(c2)OCO3)CCN1C1CC2(CCN(c3cc(Oc4cnc5[nH]ccc5c4)c(C(=O)NS(=O)(=O)c4ccc(NCC5(F)CCOCC5)c([N+](=O)[O-])c4)cc3F)CC2)C1 [compound 203, (R)-2-((1H-pyrrolo[2,3-b]pyrid-5-yl)oxy)-4-(2-(4-(benzo[d][1,3]dioxocyclopent-5-ylmethyl)-2-(2-isopropylphenyl)piperazin-1-yl)-7-azaspiro[3.5]non-7-yl)-5-fluoro-N-((4-(((4-fluorotetrahydro-2H-pyran-4-yl)methyl)amino)-3-nitrophenyl)sulfonyl)benzamide]	< 10 nM	< 10 nM				> 0.5 µM
COc1cccc(CN2CCN(C3CC4(CCN(c5cc(Oc6cnc7[nH]ccc7c6)c(C(=O)NS(=O)(=O)c6ccc(NCC7(F)CCOCC7)c([N+](=O)[O-])c6)cc5F)CC4)C3)[C@H](c3ccccc3C(C)C)C2)c1 [compound 184, (R)-2-((1H-pyrrolo[2,3-b]pyrid-5-yl)oxy)-5-fluoro-N-((4-(((4-fluorotetrahydro-2H-pyran-4-yl)methyl)amino)-3-nitrophenyl)sulfonyl)-4-(2-(2-(2-isopropylphenyl)-4-(3-methoxybenzyl)piperazin-1-yl)-7-azaspiro[3.5]non-7-yl)benzamide]	< 10 nM	< 10 nM				> 0.5 µM
COc1cc(CN2CCN(C3CC4(CCN(c5cc(Oc6cnc7[nH]ccc7c6)c(C(=O)NS(=O)(=O)c6ccc(NCC7(F)CCOCC7)c([N+](=O)[O-])c6)cc5F)CC4)C3)[C@H](c3ccccc3C(C)C)C2)ccc1C1CC1 [compound 196, (R)-2-((1H-pyrrolo[2,3-b]pyrid-5-yl)oxy)-4-(2-(4-(4-cyclopropyl-3-methoxybenzyl)-2-(2-isopropylphenyl)piperazin-1-yl)-7-azaspiro[3.5]non-7-yl)-5-fluoro-N-((4-(((4-fluorotetrahydro-2H-pyran-4-yl)methyl)amino)-3-nitrophenyl)sulfonyl)benzamide]	< 10 nM	< 10 nM				> 0.5 µM
